This is an account of results in publication PMC6130543, “Immunomodulatory activities of isolated compounds from the root-bark of Cussonia arborea” (Pharmaceutical Biology, 2017).

Converted amounts (≈) assume the structure as drawn. Read-outs that look alike come from different tables or passages of the source. Bounds are passed on as bounds.

The subject of series [1] is serum opsonized zymosan activated whole blood phagocytes (intracellular ROS production). The series can be described thus: Oxidative burst assay (luminol-enhanced chemiluminescence). To be noted: for IC50: read-out: ROS inhibition (IC50± SD µg/mL); for inhibition of production of ROS (in words): zymosan activated whole blood phagocytes, 1-100 µg/mL. It counts as cell-based, human.

The subject of series [2] is phytoheamagglutinin (PHA) activated T-cells. The experiment in a line: 3H-Thymidine incorporated T-cell proliferation assay. Conditions: for inhibition of T-cell proliferation (in words): PHA activated T-cells, 1-100 µg/mL; for IC50: read-out: T-cell proliferation inhibition (IC50± SD µg/mL). It counts as cell-based, human. The procedure:
Lymphocytes were isolated from human heparinized blood. Briefly 10 mL of blood was aseptically collected in heparin containing tube from healthy volunteer. Blood was then mixed with equal volume (1:1) of incomplete RPMI (Roswell Park Memorial Institute) media in 50 mL sterile falcon tube. Lymphocyte separation media (LSM) (5 mL) was added into two sterile 15 mL falcon tubes and 10 mL of the mixture containing blood and RPMI was gently layered on LSM in each tube. Tubes were then centrifuged at 400 g for 20 min at room temperature. The buffy layer appeared at the interface of LSM and plasma was carefully collected and washed at 4 °C for 10 min at 300 g. The supernatant was discarded and pellet containing peripheral blood mononuclear cells (PBMNCs) was collected. Cell viability and counting was performed using trypan blue dye. ^3H-Thymidine incorporated T-cell proliferation assay was performed as described by […] et al. ([2009]). […] After that 50 μL of isolated PBMNCs were added at a concentration of (2 × 10^6 cell/mL). Cells were then stimulated by adding 50 μL of 7.5 μg/mL […]) which acts as mitogen only for T-cells among other PBMNCs. […] The wells received 50 μL cells and 150 μL of 5% FCS/RPMI served as negative control where as positive control contains 50 μL cells, 50 μL of PHA-L and 100 μL of 5% FCS/RPMI. […] Plates were then incubated for 72 h at 37 °C in 5% CO2 incubator. After 72 h, cultures were pulsed with 25 μL of 0.5 μCi/well ^3H-thymidine [Hartmann Analytic, Braunschweig, Germany], and plates were further incubated for 18 h. After incubation cells were harvested using a glass fibre filter and cell harvester [Inotech, Dottikon, Switzerland]. The level of the ^3H-thymidine incorporated into the cells was measured by a LS65000 liquid scintillation counter [Beckman coulter, Fullerton, CA, USA]. Results were expressed as mean count per minutes (CPM). The 50% inhibitory concentration (IC50) values were calculated for all tested compounds.

Series [3] can be described thus: MTT cytotoxicity assay. In kind it is cell-based. Conditions: mouse. The procedure: (§1) Cytotoxicity of test compounds on NIH-3T3 fibroblast cells (ATCC, Manassas, VA, USA) was evaluated by using the standard MTT colorimetric assay. Briefly 100 μL of 5 × 10^4 cells/mL in Dulbacco’s modified eagles medium (DMEM) supplemented with 10% foetal bovine serum (FBS) were plated into 96-wells flat bottom plate and incubated overnight at 37 °C in 5% CO2. Three different concentrations of test compound (1, 10 and 100 µg/mL) were added to the plate in triplicates and incubated for 48 h. 0.5 mg/mL MTT (50 µL) was added to each well, the plate was then further incubated for 4 h. MTT was aspirated and 100 µL of dimethyl sulfoxide (DMSO) was then added to each well. The extent of MTT reduction to formazan within cells was calculated by measuring the absorbance at 540 nm, using spectrophotometer (Spectra Max plus, Molecular Devices, CA, USA). The cytotoxic activity was recorded as concentration causing 50% growth inhibition (IC50) for 3T3 cells. Cycloheximide was used as standard drug.

Series [4] has as its system NIH-3T3 fibroblast cells. The series can be described thus: MTT cytotoxicity assay. It counts as cell-based. Conditions: MTT, 48 h; three doses (1, 10 and 100 µg/mL); mean ± SD of three determinations. The procedure: as §1
(In general: Tetrazolium assays rely on reduction of a dye to a coloured formazan, in cell work by metabolically active cells.)

The test system of series [5] is whole blood lymphocyte proliferation. Further details: method as in Magee et al. [2002]. To be noted: similar work; ref Magee et al. [2002]; cited from earlier work.
Where [6] appears, read: zymosan activated human whole blood phagocytes, luminol probe, three doses (1, 10 and 100 µg/mL), mean ± SD of three determinations.
Where [7] appears, read: T-cell, PHA-L activated human T-cells, 72 h + 18 h 3H-thymidine, three doses (1, 10 and 100 µg/mL), mean ± SD of three determinations.
Setting [8] is: MTT, 48 h, three doses (1, 10 and 100 µg/mL), mean ± SD of three determinations, read-out: Cytotoxicity on NIH 3T3-cells (IC50± SD µg/mL).

For `CC1(C)CC[C@]2(C(=O)O)CC[C@]3(C)C(=CC[C@@H]4[C@@]5(C)CC[C@H](O)[C@@](C)(CO)[C@@H]5CC[C@]43C)[C@@H]2C1` [Compound 1, 3, 23-dihydroxy-12-oleanen-28-oic acid], the IC50 in series [1] (setting [6]) was 24.4 ± 4.3 µg/mL; in series [2] (setting [7]), over 100 µg/mL. Further, the “inhibition of T-cell proliferation (in words)” value in series [2] is “no inhibition”. Further, in series [3], the IC50 at 48 h was over 100 µg/mL.

As for `CC1(C)CC[C@]2(C(=O)O)CC[C@]3(C)C(=CC[C@@H]4[C@@]5(C)CC[C@H](O)C(C)(C)[C@@H]5CC[C@]43C)[C@@H]2C1` [Compound 2, 3β-hydroxylolean-12-en-28-oic], the IC50 in series [1] (setting [6]) was found to be 37.5 ± 0.1 µg/mL; in series [2] (setting [7]) it was 12.6 ± 0.4 µg/mL. Further, the IC50 at 48 h in series [3] (NIH-3T3 fibroblast cells, MTT, 48 h, three doses (1, 10 and 100 µg/mL), mean ± SD of three determinations, read-out: Cytotoxicity on NIH 3T3-cells (IC50± SD µg/mL)) was over 100 µg/mL.

`CC[C@H](/C=C/[C@@H](C)[C@H]1CC[C@H]2[C@@H]3CC=C4C[C@@H](O)CC[C@]4(C)[C@H]3CC[C@]12C)C(C)C` [Compound 3, stigmasterol]: the IC50 in series [1] (setting [6]) and in series [3] (setting [8]) was over 100 µg/mL each time. The “inhibition of production of ROS (in words)” value in series [1] is “did not inhibit”.

As to `CC[C@H](/C=C/[C@@H](C)[C@H]1CC[C@H]2[C@@H]3CC=C4C[C@@H](O[C@@H]5O[C@H](CO)[C@@H](O)[C@H](O)[C@H]5O)CC[C@]4(C)[C@H]3CC[C@]12C)C(C)C` [Compound 4, 3-O-β-D-glucopyranosyl stigmasterol], the “ROS inhibition (IC50± SD µg/mL)” value in series [1] (setting [6]) is reported as over 100 µg/mL. Besides, the “inhibition of production of ROS (in words)” value in series [1] is reported as “did not inhibit”. In series [2], the “inhibition of T-cell proliferation (in words)” value is listed as “no inhibition”. Besides, the “T-cell proliferation inhibition (IC50± SD µg/mL)” value in series [2] (PHA-L activated human T-cells, 72 h + 18 h 3H-thymidine, three doses (1, 10 and 100 µg/mL), mean ± SD of three determinations) is over 100 µg/mL. In addition, the “Cytotoxicity on NIH 3T3-cells (IC50± SD µg/mL)” value in series [4] is reported as over 100 µg/mL.

For `C[C@@H]1C[C@@H]([C@H](O)CC2CC(=O)NC(=O)C2)C(=O)[C@@H](C)C1` [Cyclohexamide, Cycloheximide, reference compound], in series [3] (setting [8]), the IC50 at 48 h was 0.13 ± 0.02 µg/mL (≈ 0.462 µM).

In the case of `CC(C)Cc1ccc(C(C)C(=O)O)cc1` (centres unmarked) [Ibuprofen, reference compound], the IC50 in series [1] (setting [6]) was found to be 11.2 ± 1.9 µg/mL.

In the case of `C[C@]12C=CC(=O)C=C1CC[C@@H]1[C@@H]2[C@@H](O)C[C@@]2(C)[C@H]1CC[C@]2(O)C(=O)CO` [Prednisolone, prednisolone, reference compound], the “IC50 of prednisolone (lymphocyte proliferation)” value in series [5] is 0.0388 µg/mL. Besides, the inhibition – broadly, the relative decrease from the control value, in per cent – at 0.62 µg/mL in series [2] (Homo sapiens, T-cell, at lowest tested concentration (0.62 µg/mL), PHA activator) turned out to be 64.3 ± 2%. The IC50 in series [2] (setting [7]) is under 0.62 µg/mL.
